These results are taken from patent publication US7625891B2, “Heterocylic antiviral compounds” (Roche Palo Alto LLC, priority 2007, dated 2009).

One test deals with CCR5 (Homo sapiens, UniProt P51681). Nature of the test: Human CCR5 receptor-ligand binding assay (125I RANTES, CHO-Gα16-hCCR5 cells). On the set-up: expressed in transfected cells. The conditions noted are these: specific 125I RANTES binding, CHO-Gα16-hCCR5 cells; read-out: IC50. The protocol: The construct was transfected into CHO-Gα16 cells by using Fugene Reagent (Roche).
Adherent cells in […] tissue culture flask (ca. 90% confluent) were harvested using 1 mM EDTA in PBS (phosphate-buffered saline) without Ca^2+ and Mg^2+. Cells were washed twice with PBS containing no Ca^2+ and Mg^2+.
Eighty μl CHO-Gα16-hCCR5 (1×10^6/mL) cells were added to 96 well plates.
The compound dilutions were made in PBS, 1% BSA. Total reaction volume was 100 μl per well. The test compounds were added to the cells prior to the addition of radioligand.
After incubation, the cells were harvested onto GF/C filter plates using Packard cell harvester. Filters were pretreated with 0.3% PEI/0.2% BSA for 30 min. The filter plate was washed rapidly 5 times with 25 mM HEPES, 500 mM NaCl, 1 mM CaCl2 and 5 mM MgCl2 adjusted to pH 7.1. Plates were dried in oven (70° C.) for 20 min, added with 40 μl scintillation fluid and sealed with Packard TopSeal-A. Packard Top Count was used to measure of the radioactivity for 1 min per well.
Total binding was determined with control wells added with radioisotope and buffer and the non-specific binding was determined using an excess cold RANTES to some of the control wells. Specific binding was determined by subtracting the non-specific form total binding. […] IC50 values were determined using varying concentrations of the test ligand in triplicates and the data was analyzed using GraphPad Prism (GraphPad, San Diego, Calif.).

Another test deals with L1.2hCCR5 cells. Kind of test: Chemotaxis assay. The class given is cell-based. The conditions noted are these: Homo sapiens; Inhibition of RANTES stimulated chemotaxis. An excerpt: The chemotaxis assay is a functional assay which measures the ability of a non-adherent cell line expressing human CCR5 receptor to migrate across a membrane in response to either test compounds or natural attractant ligand(s) (i.e., RANTES, MIP-1β). Generally, chemotaxis assays monitor the directional movement or migration of a suitable cell (such as a leukocyte (e.g., lymphocyte, eosinophil, basophil)) into or through a barrier (e.g., endothelium, a permeable filter membrane), toward, from a first surface of the barrier toward an opposite second surface containing attractant ligands. Membranes or filters provide convenient barriers to monitor the directional movement or migration of a suitable cell into or through a filter, toward increased levels of an attractant. In some assays, the membrane is coated with a substance to facilitate adhesion, such as ICAM-1, fibronectin or collagen. Such assays provide an in vitro approximation of leukocyte “homing”. […] The filter is then removed and the density of the cells that have migrated to the bottom wells is detected using CyQUANT^R cell proliferation assay kit (Invitrogen) and the Spectra MAX GeminiXS plate reader (Molecular Devices) according to the manufacturers' instructions. Using the fluorescence measurements the percent migration is determined by % migration=[1−(max−obs)/(max−min)]×100. […] This is calculated with Excel Fit.

pIC50: −log10 of the molar value.

Chain of CCR5 (P51681 whole entry): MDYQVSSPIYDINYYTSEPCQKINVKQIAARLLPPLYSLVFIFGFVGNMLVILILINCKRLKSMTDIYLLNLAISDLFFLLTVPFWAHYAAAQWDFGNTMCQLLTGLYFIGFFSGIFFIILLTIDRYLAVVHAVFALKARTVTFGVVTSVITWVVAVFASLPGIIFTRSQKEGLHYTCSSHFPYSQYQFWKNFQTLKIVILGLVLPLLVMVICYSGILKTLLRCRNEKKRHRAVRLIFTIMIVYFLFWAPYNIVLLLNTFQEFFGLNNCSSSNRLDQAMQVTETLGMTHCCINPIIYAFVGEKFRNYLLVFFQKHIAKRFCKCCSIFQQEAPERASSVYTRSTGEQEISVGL

With `CCCCC1CN(C[C@H]2CC[C@@H](OC)CC2)C(=O)OC12CCN(C1(C)CCN(C(=O)c3c(C)ncnc3C)CC1)CC2` (relative stereo) [Compound I-2, 5-Butyl-9-[1-(4,6-dimethyl-pyrimidine-5-carbonyl)-4-methyl-piperidin-4-yl]-3-(cis-4-methoxy-cyclohexylmethyl)-1-oxa-3,9-diaza-spiro[5.5]undecan-2-one], the values for the pIC50 on CCR5 and in the test on L1.2hCCR5 cells were 7.79 and 6.63, respectively.
